Reference: patent US20100261753A1, “METHODS FOR PREVENTING AND/OR TREATING DEGENERATIVE DISORDERS OF THE CENTRAL NERVOUS SYSTEM” (AMICUS THERAPEUTICS, INC., priority 2009, published 2010)

Experiment: Compound concentration in brain, spleen and plasma samples of the GCase enhancement study
Type: in vivo, mice (C57BL/6)
Settings: male, C57BL/6, mouse, po, nine doses, 24-hour washout
Protocol: The ability of orally administered test compounds (the hydrochloride salt form of Compound A and Compound B) to elevate GCase levels as compared to reference compound, IFG-tartrate, was assessed in mice. […] Seven animals were used per dose. The dosing solutions were prepared in water. Compounds were administered over 2 weeks as follows: week 1, Mon-Fri (On), Sat-Sun (Off); week 2, Mon-Thu (On); necropsy on Friday. Thus, a total of 9 doses (dosing solutions prepared fresh every day) were given to each mouse, with a 24-hour washout between the last dose and necropsy.
Plasma was collected by spinning blood at 2700 g for 10 minutes at 4° C. Liver, spleen, lung, and brain tissues were removed, washed in cold PBS, blotted dry, flash frozen on dry ice, and stored at −80° C. until analysis. GCase levels were measured by homogenizing approximately 50 mg tissue in 500 μl McIlvane (MI) buffer (100 mM sodium citrate, 200 mM sodium phosphate dibasic, 0.25% sodium taurocholate, and 0.1% Triton X-100, pH 5.2) at pH 5.2 for 3-5 seconds on ice with a micro homogenizer. Homogenates were then incubated at room temperature without and with 2.5 mM conduritol-B-epoxide (CBE) for 30 min. Finally, 3.7 mM 4-methylumbeliferryl-β-glucoside (4-MUG) substrate was added and incubated at 37° C. for 60 min. Reactions were stopped by addition of 0.4 M glycine, pH 10.6. Fluorescence was measured on a plate reader for 1 sec/well using 355 nm excitation and 460 nm emission. Total protein was determined in lysates using the MicroBCA kit according to the manufacturer's instructions. A 4-methylumbelliferone (4-MU) standard curve ranging from 1.0 nM to 50 μM was run in parallel for conversion of raw fluorescence data to absolute GCase activity (in the presence and absence of CBE) and expressed as nanomoles of 4-MU released per milligram of protein per hour (nmol/mg protein/hr). GCase levels and protein levels were calculated using Microsoft Excel (Redmond, Wash.) and GraphPad Prism version 4.02.

Row | SMILES | concentration at 24 h (brain, 10 mg/kg p.o., Table 3A) | concentration at 24 h (brain, 100 mg/kg p.o., Table 3A) | concentration at 24 h (plasma, 10 mg/kg p.o., Table 3C) | concentration at 24 h (plasma, 100 mg/kg p.o., Table 3C) | concentration at 24 h (spleen, 10 mg/kg p.o., Table 3B) | concentration at 24 h (spleen, 100 mg/kg p.o., Table 3B) | concentration at 24 h (brain, 10 mg/kg p.o., Table 4A) | concentration at 24 h (brain, 100 mg/kg p.o., Table 4A) | concentration at 24 h (plasma, 10 mg/kg p.o., Table 4C) | concentration at 24 h (plasma, 100 mg/kg p.o., Table 4C) | concentration at 24 h (spleen, 10 mg/kg p.o., Table 4B) | concentration at 24 h (spleen, 100 mg/kg p.o., Table 4B)
1 | O[C@@H]1CNCC(CF)[C@H]1O (stereo in doubt) [Compound A, (3R,4R,5R)-5-(fluoromethyl)piperidine-3,4-diol] | 124 ± 11 nM | 726 ± 51 nM | 32 ± 2.4 nM | 254 ± 73.5 nM | 69 ± 6 nM | 304 ± 63 nM | – | – | – | – | – | –
2 | O[C@@H]1[C@@H](CCl)CNC[C@H]1O [Compound B, (3R,4R,5S)-5-(chloromethyl)piperidine-3,4-diol] | – | – | – | – | – | – | 246 ± 42 nM | 2070 ± 231 nM | 104 ± 15 nM | 1530 ± 601 nM | 645 ± 214 nM | 2160 ± 464 nM
